Assay results from patent US5674872A, “Treatment of ovarian cancer” (SmithKline Beecham Corporation, priority 1995, dated 1997).

Key:
[1] = Stability of diluted topotecan in a hang-bag; format: physicochemical; settings: 24 hours
Method: Topotecan diluted in saline (10 ug/ml or 500 ug/ml) or dextrose (6.7 ug/ml or 330 ug/ml) is stable in a hang-bag for 24 hours with at least 95% recovery.

[2] = Stability of diluted topotecan solutions in plastic bags at room temperature; format: physicochemical
Method: Solution Preparation--When the 5 mg vial is reconstituted with 2 ml of Sterile Water for Injection, USP, each ml will contain 2.5 mg of topotecan as the base and 50 mg of mannitol, USP. Topotecan must not be diluted or mixed with buffered solutions because of solubility and stability considerations.
Stability--Shelf life surveillance of the intact vials is ongoing. Because the single-use lyophilized dosage form contains no antibacterial preservatives, it is advised that the reconstituted solution be discarded eight hours after initial entry into the vial. Futher dilutions of the reconstituted solution to concentrations of 0.02 mg/ml and 0.1 mg.ml in 5% Dextrose Injection, USP, ("D5W") or 0.9% Sodium Chloride Injection, USP, ("NS") in plastic bags stored at room temperature yielded the following stability results: […]

ovarian cancer = test: Treatment of a human patient with ovarian cancer, tumor size regression evaluated by CAT scan; format: in vivo; settings: one platinum-refractory patient, 1.5 mg/m^2/day i.v. for five consecutive days, sustained at least until the tenth treatment
Method: One human patient with ovarian cancer, who was refractory to two previous platinum-containing regimens (i.e., cisplatin-cyclophosphamide combination regimen and treatment with single agent carboplatin), received a course of therapy comprising intravenous administration of 1.5 mg of topotecan/m^2 of body surface area per day for five consecutive days. This course of therapy was repeated […] nine more times to date at twenty-one day intervals (from the date of initiation of therapy) for a total of ten treatments. Tumor size regression was evaluated by CAT (computerized axial tomography) scan. […] At least until the tenth treatment, this clinically significant response was sustained, i.e., a greater than fifty percent (50%) tumor size regression was obtained.

Q: With CC[C@@]1(O)C(=O)OCc2c1cc1n(c2=O)Cc2cc3c(CN(C)C)c(O)ccc3nc2-1 [Topotecan, (S)-10[(dimethylamino)methyl]-4-ethyl-4,9-dihydroxy-1 H-pyrano[3',4':6,7]indolizino[1,2-b]quinolone-3,14(4 H,12 H)-dione] as the compound, how does the “recovery (stable in a hang-bag)” value ([1]; dextrose, 6.7 ug/ml or 330 ug/ml) read?
A: at least 95%

Q: What about the “recovery (stable in a hang-bag)” value ([1]; saline, 10 ug/ml or 500 ug/ml) of the same compound?
A: at least 95%

Q: What about the “Percentage of Initial Topotecan Remaining in Solution” value ([2]; D5W, 0.02 mg/ml, 0 hrs) of the same compound?
A: 100.00%

Q: And the “Percentage of Initial Topotecan Remaining in Solution” value ([2]; D5W, 0.02 mg/ml, 6 hrs)?
A: 99.29%

Q: What about the “Percentage of Initial Topotecan Remaining in Solution” value ([2]; D5W, 0.02 mg/ml, 24 hrs) of the same compound?
A: 102.30%

Q: And the “Percentage of Initial Topotecan Remaining in Solution” value ([2]; D5W, 0.02 mg/ml, 48 hrs)?
A: 101.98%

Q: What about the “Percentage of Initial Topotecan Remaining in Solution” value ([2]; D5W, 0.1 mg/ml, 0 hrs) of the same compound?
A: 100.00%

Q: What about the “Percentage of Initial Topotecan Remaining in Solution” value ([2]; D5W, 0.1 mg/ml, 6 hrs) of the same compound?
A: 99.68%

Q: And the “Percentage of Initial Topotecan Remaining in Solution” value ([2]; D5W, 0.1 mg/ml, 24 hrs)?
A: 98.16%

Q: What about the “Percentage of Initial Topotecan Remaining in Solution” value ([2]; D5W, 0.1 mg/ml, 48 hrs) of the same compound?
A: 97.91%

Q: And the “Percentage of Initial Topotecan Remaining in Solution” value ([2]; NS, 0.02 mg/ml, 0 hrs)?
A: 100.00%

Q: What about the “Percentage of Initial Topotecan Remaining in Solution” value ([2]; NS, 0.02 mg/ml, 6 hrs) of the same compound?
A: 98.58%

Q: What about the “Percentage of Initial Topotecan Remaining in Solution” value ([2]; NS, 0.02 mg/ml, 24 hrs) of the same compound?
A: 96.01%

Q: And the “Percentage of Initial Topotecan Remaining in Solution” value ([2]; NS, 0.02 mg/ml, 48 hrs)?
A: 102.03%

Q: And the “Percentage of Initial Topotecan Remaining in Solution” value ([2]; NS, 0.1 mg/ml, 0 hrs)?
A: 100.00%

Q: What about the “Percentage of Initial Topotecan Remaining in Solution” value ([2]; NS, 0.1 mg/ml, 6 hrs) of the same compound?
A: 97.71%

Q: What about the “Percentage of Initial Topotecan Remaining in Solution” value ([2]; NS, 0.1 mg/ml, 24 hrs) of the same compound?
A: 98.30%

Q: What about the “Percentage of Initial Topotecan Remaining in Solution” value ([2]; NS, 0.1 mg/ml, 48 hrs) of the same compound?
A: 98.35%

Q: And the “tumor size regression, sustained” value (ovarian cancer)?
A: > 50%
